# Laboratory results: patent US11414377B2, “Modulator of metabotropic and ionotropic transmembrane receptors and use thereof” (IBD THERAPEUTICS LLC, priority 2018, dated 2022)
# What was measured:
# male balb/c mice = assay: Motility of the gastrointestinal tract in vivo (activated carbon transit); settings: intact 73.8 ± 3.7
# Description: The effect of Compound I on the motility of the GIT was studied by a standard procedure (Li Y. Y., Li Y. N., Ni J. B., Chen C. J., Lv S., Chai S. Y., Wu R. H., Yüce B., Storr M. Involvement of cannabinoid-1 and cannabinoid-2 receptors in septic ileus//Neurogastroenterol Motil. 2010. V. 22. P. 350-388). The study was carried out on male balb/c mice, the individual weight of which deviates from the mean value within the sex of no more than ±20%. The animals were given the intragastric administration of a solution of activated carbon (50 mg/ml, in 10 ml/kg) and the rate (in minutes) of the movement of the activated carbon on the intestine of animals was evaluated. Compounds I was administered once intragastrically 1 hour prior to administration of activated carbon. As the comparative preparations, hyoscin butyl bromide (Buscopan) at a dose of 3 mg/kg, trimebutine (Trimedat) at a dose of 33 mg/kg, mebeverine (Duspatalin) at a dose of 30 mg/kg were used. The obtained data were checked using the Grubb's test for the presence of the largest or smallest abnormal observation (ejection) in the sample. Values determined “to be eliminated” in this test were not used for further assay. For all data, descriptive statistics was used: a mean value (M) and standard error of the mean value (m) were counted up. The normality of distribution of the values obtained in the course of the experiment was checked with the aid of the Kolmogorov-Smirnov test. In the case of normal distribution, Student's t-test (t-test) was used to evaluate the inter-group distinctions. In the case of the distribution that is other than the normal one for the comparison of several groups, the Kruskall-Wallis test (with Dann's post hoc test) was used. Distinctions were determined at 5% at a level of confidence.
# female balb/c mice = assay: Oxazolone-induced inflammatory bowel disease model; type: in vivo; settings: 10 mg/kg, 1, 25 and 49 hours after oxazolone, scored at 72 hours, control 2.00 ± 0.21
# Description: The study of the activity of Compound I on the oxazolone-induced inflammatory bowel disease model (ulcerative Colitis and Crohn's disease model) was carried out by means of a standard procedure (Heller F., Fuss I. J., Nieuwenhuis E. E., Blumberg R. S., Strober W. Oxazolone colitis, a Th2 colitis model resembling ulcerative colitis, is mediated by IL-13-producing NK-T cells//Immunity. 2002. P. 629-638).
# The study was carried out on female balb/c mice. A 3.5 F catheter was introduced into the large intestine to a depth of 3-4 cm. Then, 150 μl of 1% oxazolone solution in 50% ethanol was slowly introduced into the colon lumen, the catheter was slowly removed and the mouse was kept in a vertical position (upside down) for 60 seconds to avoid the introduced solution flowing-out. Experimental animals were returned to the cages and the animal was kept in the warm. Compound I was administered intragastrically, three times: 1 hour, 25 hours and 49 hours after the rectal administration of oxazolone. 72 hours later after the rectal administration of oxazolone, the macroscopic assessment of intestinal wall damage is carried out with the help of score scale: 0 points—no lesions, 1 point—hyperemia, no ulcers, 2 points—hyperemia and thickening of the intestinal wall, no ulcers, 3 points—one ulcer without thickening of the intestine wall, 4 points—2 or more of the site of ulceration or inflammation, 5 points—2 or more severe sites of ulcerations and inflammation, or one site of ulceration/inflammation affecting >1 cm in length of the intestine, 6-10 points—the lesion affects >2 cm in length of the intestine, the score increases by 1 point per each 1 cm that is damaged.
# For all data, descriptive statistics is applied: the arithmetic mean (M) and the standard error of the mean (m) are counted up. The normality of distribution of the values obtained in the course of the experiment was checked with the aid of the Shapiro-Wilk test. […] Distinctions were determined at 5% at a level of confidence.
structure (smiles),measurement,setting,value
"CCC(COC(=O)c1cc(OC)c(OC)c(OC)c1)(c1ccccc1)N(C)C (stereo not shown) [Trimebutine, trimebutine, reference compound]",The time of ejection of activated carbon,male balb/c mice; 33 mg/kg once intragastrically 1 hour prior to activated carbon,110.8 ± 6.52 min
"CCN(CCCCOC(=O)c1ccc(OC)c(OC)c1)C(C)Cc1ccc(OC)cc1 (stereo not shown) [Mebeverine, mebeverine, reference compound]",The time of ejection of activated carbon,male balb/c mice; 30 mg/kg once intragastrically 1 hour prior to activated carbon,114.5 ± 12.22 min
"CCCC[N+]1(C)[C@@H]2C[C@@H](OC(=O)[C@H](CO)c3ccccc3)C[C@H]1[C@@H]1O[C@@H]12 (stereo partly shown) [Hyoscine butyl bromide, hyoscin butyl bromide, reference compound]",The time of ejection of activated carbon,male balb/c mice; 3 mg/kg once intragastrically 1 hour prior to activated carbon,87.6 ± 4.75 min
"C[C@]12C=CC(=O)C=C1CC[C@@H]1[C@@H]2[C@@H](O)C[C@@]2(C)[C@H]1CC[C@]2(O)C(=O)CO [Prednisolone, reference compound]",The degree of colon wall damage,female balb/c mice,1.40 ± 0.37 points
